Measurements reported in patent publication US10799518B2, “Use of agonists of formyl peptide receptor 2 for treating dermatological diseases” (Allergan, Inc., priority 2013, dated 2020).

Experiments:
FPRL-1 = FPRL-1 (Homo sapiens (Human), UniProt P25090); experiment: FPRL-1 Ga16-CHO EC50 (efficacy); assay type: cell-based; settings: Table 3; value in parentheses
human FPR2 receptor = human FPR2 receptor (Homo sapiens (Human), UniProt P25090); experiment: FLIPR Ca+2 response in HEK-Gα16 cells stably expressing the human FPR2 receptor; assay type: cell-based; settings: Table 4; for FPR2 (% eff): value in parentheses, given mostly as fraction; for EC50: HEK-Gα16 human FPR2, FLIPR
Description: HEK-Gα16 cells stably expressing the human FPR2 receptor was utilized. Cells were plated into 384-well poly-D-lysine coated plates at a density of 18,000 cells per well one day prior to use. The growth media was DMEM medium supplemented with 10% fetal bovine serum (FBS), 1% antibiotic-antimycotic, 50 μg/ml hygromycin, and 400 μg/ml geneticin. On the day of the experiment, the cells were washed twice with Hank's Balanced Salt Solution supplemented with 20 mM HEPES (HBSS/hepes buffer). The cells were then dye loaded with 2 μM Fluo-4 diluted in the HBSS/Hepes buffer and incubated at 37° C. for 40 minutes. Extracellular dye was removed by washing the cell plates four times prior to placing the plates in the FLIPR (Fluorometric Imaging Plate Reader, Molecular Devices). Ligands were diluted in HBSS/Hepes buffer and prepared in 384-well microplates. Data for Ca^+2 responses were obtained in relative fluorescence units.

[1] = system: LL-37-induced inflammation in mouse ears; experiment: LL37-induced model of rosacea in mice (ear thickness); assay type: in vivo; settings: topical to ears; p<0.05 vs. vehicle; FIG. 2
Description: LL37-Induced Model of Rosacea in Mice:
Prior to dosing, animals are lightly anaesthetized with isofluorane and baseline right and left ear thickness measurements are made with a digital caliper (Mitutoyo 293-340). At t=−1 hrs, animals are lightly anaesthetized with isoflurane to allow topical application (dorsal side) of 10 μL of FPR2 agonist formulated in a vehicle consisting of PBS:ethanol (50:50), or vehicle control to both ears. At t=0 hr, mice are re-anaesthetized. Following ear thickness measurements, 20 uL of LL-37 (100 μM) is injected into the right ear, while PBS is injected into the left ear. Additional ear thickness measurements are taken at t=3 and 6 hours. After the last time point, mice are euthanized by CO2 inhalation and ears collected for additional analyses.

Sequence of human FPR2 receptor (P25090 whole entry): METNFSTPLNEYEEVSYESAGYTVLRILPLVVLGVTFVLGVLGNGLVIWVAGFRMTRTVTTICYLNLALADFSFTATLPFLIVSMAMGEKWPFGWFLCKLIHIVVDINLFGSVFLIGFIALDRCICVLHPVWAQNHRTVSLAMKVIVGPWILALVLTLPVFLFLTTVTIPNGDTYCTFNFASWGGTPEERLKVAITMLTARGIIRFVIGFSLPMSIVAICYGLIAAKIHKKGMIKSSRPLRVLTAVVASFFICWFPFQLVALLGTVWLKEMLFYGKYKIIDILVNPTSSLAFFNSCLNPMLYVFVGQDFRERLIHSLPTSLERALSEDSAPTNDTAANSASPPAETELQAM
Sequence of FPRL-1 (P25090 whole entry): as above

FPRL-1 Ga16-CHO (efficacy) (FPRL-1)	SMILES	FPR2 (% eff) (human FPR2 receptor) [%]	also measured
0.89	O=C(CN1C(=O)NC2(CCCCC2)C1=O)Nc1ccc(Br)cc1 [N-(4-bromophenyl)-2-(2,4-dioxo-1,3-diazaspiro[4.5]dec-3-yl)acetamide]	–	–
0.67	CCC1(CC)NC(=O)N(CC(=O)Nc2ccc(F)cc2)C1=O [2-(4,4-diethyl-2,5-dioxoimidazolidin-1-yl)-N-(4-fluorophenyl)acetamide]	–	–
–	CCC[C@H](NC(=O)Nc1ccc(Br)cc1)C(=O)NCP(=O)(O)OCC [Compound 123, ethyl hydrogen ({[(2S)-2-{[(4-bromophenyl)carbamoyl]amino}pentanoyl]amino}methyl) phosphonate]	96	–
0.94	CC1(C)NC(=O)N(CC(=O)Nc2ccc(Br)cc2)C1=O [N-(4-bromophenyl)-2-(4,4-dimethyl-2,5-dioxoimidazolidin-1-yl)acetamide]	–	–
–	CSc1ccc(NC(=O)C2C(C(=O)O)C3C=CC2C32CC2)cc1 (stereo not drawn) [Compound 31, 3-{[4-(methylsulfanyl)phenyl]carbamoyl} spiro[bicyclo[2.2.1]heptane-7,1′-cyclopropane]-5-ene-2-carboxylic acid]	96	EC50 (human FPR2 receptor): 14 nM
0.84	CC1(C2CC2)NC(=O)N(CC(=O)Nc2ccc(Br)cc2)C1=O (stereo not drawn) [N-(4-bromophenyl)-2-(4-cyclopropyl-4-methyl-2,5-dioxoimidazolidin-1-yl)acetamide]	–	–
–	CCOP(=O)(O)CNC(=O)[C@@H](NC(=O)Nc1ccc(Br)cc1)[C@@H](C)CC [Compound 115, ethyl hydrogen ({[(2S,3S)-2-{[(4-bromophenyl)carbamoyl]amino}-3-methylpentanoyl]amino}methyl)phosphonate]	88	–
0.83	CCC1(c2ccccc2)NC(=O)N(CC(=O)Nc2ccc(Br)cc2)C1=O (stereo not drawn) [N-(4-bromophenyl)-2-(4-ethyl-2,5-dioxo-4-phenylimidazolidin-1-yl)acetamide]	–	–
–	CC[C@H](C)[C@H](NC(=O)Nc1ccc(Br)cc1)C(=O)NCC(=O)O [Compound 3, {[(2S,3S)-2-{[(4-bromophenyl)carbamoyl]amino}-3-methylpentanoyl]amino} acetic acid]	–	inflammation induced by LL-37 in mouse ears [1]: Anti-inflammatory activity
0.98	O=C(CN1C(=O)C2CC=CCC2C1=O)Nc1ccc(Br)cc1 (stereo not drawn) [N-(4-bromophenyl)-1,3,3a,4,7,7a-hexahydro-1,3-dioxo-2H-isoindole-2-acetamide]	–	–
0.98	CCC1(CC)NC(=O)N(CC(=O)Nc2ccc(Br)cc2)C1=O [N-(4-bromophenyl)-2-(4,4-diethyl-2,5-dioxoimidazolidin-1-yl)acetamide]	–	–
–	CCOP(=O)(O)CNC(=O)[C@H](Cc1ccccc1)NC(=O)Nc1ccc(Br)cc1 [Compound 126, ethyl hydrogen ({[(2S)-2-{[(4-bromophenyl)carbamoyl]amino}-3-phenylpropanoyl]amino}methyl)phosphonate]	100	–
–	CC(C)C[C@H](NC(=O)Nc1ccc(C(F)(F)F)cc1)C(=O)NCC(=O)O [Compound 124, {[(2S)-4-methyl-2-({[4-(trifluoromethyl)phenyl]carbamoyl}amino)pentanoyl]amino}acetic acid]	100	–
–	CC(C)C[C@H](NC(=O)Nc1ccc(Br)cc1)C(=O)NCC(=O)O [Compound 8, {[(2S)-2-{[(4-bromophenyl)carbamoyl]amino}-4-methylpentanoyl]amino} acetic acid]	–	inflammation induced by LL-37 in mouse ears [1]: Anti-inflammatory activity
0.96	O=C(CN1C(=O)NC2(CCCCCC2)C1=O)Nc1ccc(Br)cc1 [N-(4-bromophenyl)-2-(2,4-dioxo-1,3-diazaspiro[4.6]undec-3-yl)acetamide]	–	–
–	CC(C)C[C@H](NC(=O)Nc1ccc(Br)cc1)C(=O)NCC(O)CO (stereo partly drawn) [Compound 95, (2S)-2-{[(4-bromophenyl)carbamoyl]amino}-N-(2,3-dihydroxypropyl)-4-methylpentanamide]	98	–
–	CCOP(=O)(O)CNC(=O)[C@H](CC(C)C)NC(=O)Nc1ccc(Br)cc1 [Compound 105, ethyl hydrogen ({[(2S)-2-{[(4-bromophenyl)carbamoyl]amino}-4-methylpentanoyl]amino}methyl)phosphonate]	88	–

FPRL-1 Ga16-CHO (efficacy) (FPRL-1)	SMILES	FPR2 (% eff) (human FPR2 receptor) [%]	also measured
0.96	O=C(CN1C(=O)NC2(CCCC2)C1=O)Nc1ccc(Br)cc1 [N-(4-bromophenyl)-2-(2,4-dioxo-1,3-diazaspiro[4.4]non-3-yl)acetamide]	–	–
0.79	CCC1(CC)NC(=O)N(CC(=O)Nc2ccc(Cl)cc2)C1=O [N-(4-chlorophenyl)-2-(4,4-diethyl-2,5-dioxoimidazolidin-l-yl)acetamide]	–	–
–	CCC[C@H](NC(=O)Nc1ccc(Br)cc1)C(=O)NCP(=O)(OCC)OCC [Compound 117, diethyl (1[(2S)-2-1[(4-bromophenyl)carbamoyl]amino}pentanoyl]amino}methyl) phosphonate]	100	–
–	CCOP(=O)(CNC(=O)[C@H](Cc1ccccc1)NC(=O)Nc1ccc(Br)cc1)OCC [Compound 118, diethyl ({[(2S)-2-{[(4-bromophenyl)carbamoyl]amino}-3-phenylpropanoyl]amino}methyl)phosphonate]	93	–
–	CCOP(=O)(CCNC(=O)CC1(C(C)C)NC(=O)N(NC(=O)Nc2ccc(Br)cc2)C1=O)OCC (stereo not drawn) [Compound 152, diethyl [2-({[1-{[(4-bromophenyl)carbamoyl]amino}-2,5-dioxo-4-(propan-2-yl)imidazolidin-4-yl]acetyl}amino)ethyl] phosphonate]	100	–
–	CC(C)C[C@H](NC(=O)Nc1ccc(Br)cc1)C(=O)NCc1cc(O)no1 [Compound 116, (2S)-2-{[(4-bromophenyl)carbamoyl]amino}-N-[(3-hydroxy-1,2-oxazol-5 - yl)methyl]-4-methylpentanamide]	100	–
1.0	CCC1(C)NC(=O)N(CC(=O)Nc2ccc(Br)cc2)C1=O (stereo not drawn) [N-(4-bromophenyl)-2-(4-ethyl-4-methyl-2,5-dioxoimidazolidin-1-yl)acetamide]	–	–
0.88	CC1(CCc2ccccc2)NC(=O)N(CC(=O)Nc2ccc(Br)cc2)C1=O (stereo not drawn) [N-(4-bromophenyl)-2-[4-methyl-2,5-dioxo-4-(2-phenylethyl)imidazolidin-1-yl]acetamide]	–	–
–	CC(C)C[C@H](NC(=O)Nc1ccc(Br)cc1)C(=O)N[C@@H](C)C(=O)O [Compound 90, (2S)-2-{[(2S)-2-{[(4-bromophenyl)carbamoyl]amino}-4-methylpentanoyl]amino} propanoic acid]	100	–
–	O=C(O)[C@@H]1C2CCC([C@@H]1C(=O)Nc1ccc(Br)cc1)C21CC1 (relative stereo) [Compound 14, rel-(2R,3 S)-3-[(4-brornophenyl)carbarnoyl]spiro [bicyclo[2.2.1]heptane-7,1′-cyclopropane]-2-carboxylic acid]	90	EC50 (human FPR2 receptor): 4 nM
–	CCOP(=O)(O)CNC(=O)[C@H](CC(C)C)NC(=O)Nc1ccc(C(F)(F)F)cc1 [Compound 135, ethyl hydrogen ({[(2S)-4-methyl-2-({[4-(trifluoromethyl)phenyl]carbamoyl}amino)pentanoyl]amino}methyl)phosphonate]	91	–
–	CC(C)C[C@H](NC(=O)Nc1ccc(Br)cc1F)C(=O)NCC(=O)O [Compound 7, {[(2S)-2-{[(4-bromo-2-fluorophenyl)carbamoyl]amino}-4-methylpentanoyl]amino} acetic acid]	–	inflammation induced by LL-37 in mouse ears [1]: Anti-inflammatory activity
–	CCOP(=O)(CCNC(=O)[C@H](CC(C)C)NC(=O)Nc1ccc(Br)cc1)OCC [Compound 119, diethyl (2-{[(2S)-2-{[(4-bromophenyl)carbamoyl]amino}-4-methylpentanoyl]amino}ethyl) phosphonate]	–	EC50 (human FPR2 receptor): 16.1 nM
–	CCOP(=O)(CNC(=O)[C@H](CC(C)C)NC(=O)Nc1ccc(C(F)(F)F)cc1)OCC [Compound 134, diethyl ({[(2S)-4-methyl-2-({[4-(trifluoromethyl)phenyl]carbamoyl}amino)pentanoyl]amino}methyl)phosphonate]	97	–
–	CCOP(=O)(CNC(=O)[C@H](CC(C)C)NC(=O)Nc1ccc(SC)cc1)OCC [Compound 138]	91	–
0.90	O=C(CN1C(=O)C2C3C=CC(C3)C2C1=O)Nc1ccc(Br)cc1 (stereo not drawn) [N-(4-bromophenyl)-1,3,3a,4,7,7a-hexahydro-1,3-dioxo-4,7-methano-2H-isoindole-2-acetamide]	–	–
0.98	CCCC1(CCC)NC(=O)N(CC(=O)Nc2ccc(Br)cc2)C1=O [N-(4-bromophenyl)-2-(2,5-dioxo-4,4-dipropylimidazolidin-1-yl)acetamide]	–	–
